The record followed here is patent US11584744B2 (UNIVERSITY OF WASHINGTON, priority 2017, dated 2023).

The structures appear in SMILES notation. pEC50, pIC50: −log10 of the molar value. In brackets after ≈: the same amount, converted by molar mass. Like-named read-outs stand apart in the source and are kept apart here.

For experiment [1], the target named is recombinant S. aureus MetRS enzyme (Staphylococcus aureus, UniProt A0A0H2XID2). Briefly: Inhibition of SaMetRS, ATP depletion assay. Format: biochemical. Particulars: read-out: (B) MetRS (S. aureus) IC50. Here is the method: Production of recombinant S. aureus MetRSs. The SaMetRS gene (UniProtKB—A0A0H2XID2) was PCR amplified (Sense 5′-[…]-3′ (SEQ ID NO: 1) and Antisense 5′-[…]-3′ (SEQ ID NO:2)) from genomic DNA isolated from S. aureus (ATCC 29213) cultures. The PCR product was then cloned into the AVA0421 plasmid and sequence verified. The expression of recombinant protein was performed as previously described. The N-terminal 6-His fusion proteins were purified by nickel affinity chromatography followed by size exclusion gel chromatography (Superdex 75 26/60; GE Biosciences, Piscataway, N.J.).
Chain of recombinant S. aureus MetRS enzyme (A0A0H2XID2 2-657): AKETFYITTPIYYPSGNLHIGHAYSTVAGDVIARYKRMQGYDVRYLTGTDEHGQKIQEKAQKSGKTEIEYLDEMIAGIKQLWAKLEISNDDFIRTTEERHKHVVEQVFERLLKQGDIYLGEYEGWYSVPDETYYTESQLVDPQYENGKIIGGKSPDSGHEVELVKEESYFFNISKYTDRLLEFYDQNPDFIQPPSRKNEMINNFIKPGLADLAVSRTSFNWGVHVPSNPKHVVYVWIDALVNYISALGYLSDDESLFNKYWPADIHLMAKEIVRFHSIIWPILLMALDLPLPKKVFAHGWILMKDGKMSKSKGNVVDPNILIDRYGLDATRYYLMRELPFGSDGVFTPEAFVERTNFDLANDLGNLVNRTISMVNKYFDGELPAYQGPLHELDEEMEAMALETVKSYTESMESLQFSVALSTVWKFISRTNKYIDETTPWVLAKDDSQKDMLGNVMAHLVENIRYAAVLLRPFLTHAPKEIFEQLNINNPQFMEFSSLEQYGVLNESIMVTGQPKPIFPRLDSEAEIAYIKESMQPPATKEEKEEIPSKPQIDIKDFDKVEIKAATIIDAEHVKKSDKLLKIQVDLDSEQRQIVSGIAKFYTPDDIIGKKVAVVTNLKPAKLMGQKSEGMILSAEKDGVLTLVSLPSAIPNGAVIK
Enzyme assays. Inhibition of SaMetRS was measured using the ATP depletion assay as previously described with some modifications. Compounds were pre-incubated for 15 minutes at room temperature in a 96-well plate with 400 μg/mL bulk E. coli tRNA, 25 nM SaMetRS, 0.1 U/mL pyrophosphatase, 0.2 mM spermine, 0.1 mg/mL bovine serum albumin, 2.5 mM dithiothreitol, 25 mM HEPES-KOH pH 7.9, 10 mM MgCl2, 50 mM KCl, and 2% DMSO. Reagents were purchased from Sigma-Aldrich or Roche. The reaction was started with the addition of 150 nM ATP and 20 μM L-methionine and after 120 minute incubation was stopped by the addition of an equal volume (50 μL) of Kinase-Glo® (Promega). Percent inhibition=100×(test compound−AVG low control)/(AVG high control−AVG low control) where the low control is all reagents except the compound and the high control is all reagents except the compounds and L-methionine. IC50 values were calculated by non-linear regression, sigmoidal-dose response, in Prism 3.0.

The subject of experiment [2] is S. aureus MRSA (ATCC 33591). In words: MIC susceptibility testing. Format: cell-based, Staphylococcus aureus. As to conditions: MRSA ATCC33591; for MIC: Staphylococcus aureus, read-out: (G) MRSA (ATCC33591) MIC. The procedure, abridged:
(§1)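 CLSI broth microdilution with two-fold compound dilutions, in triplicate; cells added in medium at 1×10^6 CFUs/mL, DMSO ≤0.5%. Media: MHB for S. aureus, CA-MHB for E. coli and E. faecium, CA-MHB plus 3% laked horse blood for S. pyogenes (5% CO2).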

Experiment [3] deals with S. aureus MSSA (ATCC 29213). Briefly: MIC susceptibility testing. Format: cell-based, Staphylococcus aureus. As to conditions: Staphylococcus aureus, S. aureus ATCC 29213; read-out: (F) S. aureus (ATCC 29213) MIC.
The next experiment concerns the target T1, MetRS (T. brucei) (Trypanosoma brucei brucei, UniProt Q38C91).
T1 sequence (Q38C91 1-773): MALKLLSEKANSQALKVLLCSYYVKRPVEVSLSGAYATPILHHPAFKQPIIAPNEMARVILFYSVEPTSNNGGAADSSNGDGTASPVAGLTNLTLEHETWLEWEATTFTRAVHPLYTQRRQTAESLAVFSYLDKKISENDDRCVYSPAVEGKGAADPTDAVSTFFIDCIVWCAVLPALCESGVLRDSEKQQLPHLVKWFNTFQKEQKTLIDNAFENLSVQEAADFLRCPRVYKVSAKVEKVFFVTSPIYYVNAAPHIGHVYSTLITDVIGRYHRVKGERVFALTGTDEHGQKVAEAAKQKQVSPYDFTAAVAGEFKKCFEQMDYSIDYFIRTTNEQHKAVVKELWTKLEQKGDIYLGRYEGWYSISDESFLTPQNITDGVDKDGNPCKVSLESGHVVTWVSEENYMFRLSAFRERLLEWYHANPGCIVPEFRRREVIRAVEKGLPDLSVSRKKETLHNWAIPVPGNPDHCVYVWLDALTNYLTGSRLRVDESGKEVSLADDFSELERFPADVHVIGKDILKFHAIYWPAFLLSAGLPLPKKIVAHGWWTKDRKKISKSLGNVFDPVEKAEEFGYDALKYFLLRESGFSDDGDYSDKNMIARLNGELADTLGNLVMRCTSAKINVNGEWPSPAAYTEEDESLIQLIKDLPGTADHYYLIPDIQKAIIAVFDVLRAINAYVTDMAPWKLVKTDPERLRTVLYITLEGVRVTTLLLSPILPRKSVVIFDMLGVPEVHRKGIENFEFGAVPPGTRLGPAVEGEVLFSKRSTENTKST
In words: MetRS (T. brucei) enzyme inhibition. Format: biochemical.

The next experiment deals with MetRS (C. parvum) (Cryptosporidium parvum, UniProt Q5CVN0). Briefly: MetRS (C. parvum) enzyme inhibition. It is filed as biochemical. As to conditions: read-out: (C) MetRS (C. parvum) IC50.
Chain of MetRS (C. parvum) (Q5CVN0 entry or part of it): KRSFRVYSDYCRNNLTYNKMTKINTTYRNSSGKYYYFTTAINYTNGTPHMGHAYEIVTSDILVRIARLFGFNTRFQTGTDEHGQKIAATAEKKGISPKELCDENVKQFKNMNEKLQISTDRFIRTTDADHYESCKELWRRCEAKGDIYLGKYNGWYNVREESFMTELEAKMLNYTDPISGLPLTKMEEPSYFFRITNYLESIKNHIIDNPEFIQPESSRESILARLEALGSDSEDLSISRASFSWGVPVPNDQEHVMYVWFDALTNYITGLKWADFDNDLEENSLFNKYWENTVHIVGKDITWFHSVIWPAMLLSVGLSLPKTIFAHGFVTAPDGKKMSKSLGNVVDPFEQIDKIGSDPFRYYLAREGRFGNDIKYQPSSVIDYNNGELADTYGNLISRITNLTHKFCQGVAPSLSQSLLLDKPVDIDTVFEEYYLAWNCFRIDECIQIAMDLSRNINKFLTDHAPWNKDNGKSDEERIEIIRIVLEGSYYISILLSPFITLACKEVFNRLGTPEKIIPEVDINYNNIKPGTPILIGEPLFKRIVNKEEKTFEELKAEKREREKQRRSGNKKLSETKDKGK
The next experiment has as its system T. cruzi. In words: T. cruzi growth inhibition. Format: cell-based, Trypanosoma cruzi. As to conditions: read-out: (E) T. cruzi EC50.
Another experiment relates to C. parvum. In words: C. parvum growth inhibition. As to conditions: read-out: (J) C. parvum EC50. Format: cell-based, Cryptosporidium parvum.
The test system of experiment [4] is E. faecium VRE (ATCC 51559). In words: MIC susceptibility testing. Format: cell-based, Enterococcus faecium. As to conditions: Enterococcus faecium, E. faecium ATCC 51559; read-out: (I) E. faecium (ATCC 51559) MIC. The procedure, abridged: as §1
A further experiment deals with T. brucei. Briefly: T. brucei growth inhibition. It is filed as cell-based, Trypanosoma brucei. Particulars: read-out: (D) T. brucei EC50.

As for `COCCn1c(Cc2ccc(Cl)cc2Cl)cn(Cc2nc3ccc(F)nc3[nH]2)c1=O` [Compound 2077, 4-[(2,4-dichlorophenyl)methyl]-1-({5-fluoro-1H-imidazo[4,5-b]pyridin-2-yl}methyl)-3-(2-methoxyethyl)-2,3-dihydro-1H-imidazol-2-one], the pIC50 in experiment [1] is > 7.60; at MetRS (T. brucei), > 7.40; at MetRS (C. parvum) it was > 7.40. The MIC was > 2.5 µg/mL in experiment [2] and 0.818 µg/mL (≈ 1.82 µM) in experiment [3]. Further, the pEC50 in the experiment with T. cruzi (Trypanosoma cruzi) was 6.67; in the experiment on C. parvum (Cryptosporidium parvum), 6.32; in the experiment with C. parvum, 6.55.
As to `COCCCn1c(Cc2ccc(Cl)cc2Cl)cn(Cc2nc3ccc(F)nc3[nH]2)c1=O` [Compound 2082, 4-[(2,4-dichlorophenyl)methyl]-1-({5-fluoro-1H-imidazo[4,5-b]pyridin-2-yl}methyl)-3-(3-methoxypropyl)-2,3-dihydro-1H-imidazol-2-one], the results for the pIC50 (in experiment [1]; at MetRS (T. brucei); at MetRS (C. parvum)) were > 7.60, > 7.40 and > 7.40, respectively. Besides, the MIC in experiment [2] is 1.54 µg/mL (≈ 3.32 µM); in experiment [3], 0.18 µg/mL (≈ 0.388 µM); in experiment [4], 0.238 µg/mL (≈ 0.513 µM). The pEC50 in the experiment on T. cruzi (Trypanosoma cruzi) was 6.84.
`CCn1c(Cc2ccc(Cl)cc2Cl)cn(Cc2nc3ccc(Br)nc3[nH]2)c1=O` [Compound 2091, 1-({5-bromo-1H-imidazo[4,5-b]pyridin-2-yl}methyl)-4-[(2,4-dichlorophenyl)-methyl]-3-ethyl-2,3-dihydro-1H-imidazol-2-one]: the figures for the pIC50 (in experiment [1]; at MetRS (T. brucei); on MetRS (C. parvum)) were > 7.60, > 7.40 and > 7.40, respectively. For the same compound, the results for the MIC in [2] and in experiment [3] were > 2.5 µg/mL and 0.199 µg/mL (≈ 0.414 µM), respectively. Also, the pEC50 in the experiment on T. brucei (Trypanosoma brucei) was 8.55; in the experiment with T. cruzi (Trypanosoma cruzi) it was 7.23; in the experiment with T. cruzi it was 7.39; in the experiment on C. parvum (Cryptosporidium parvum), 6.22.
As to `COc1cc(-c2cccc3nc(Cc4nc5nc(Cl)ccc5[nH]4)cn23)c(Cl)cc1Cl` [Compound 2128, 2-({5-chloro-1H-imidazo[4,5-b]pyridin-2-yl}methyl)-5-(2,4-dichloro-5-methoxyphenyl)imidazo[1,2-a]pyridine], the pIC50 is > 7.60 in experiment [1], > 7.40 against MetRS (T. brucei) and > 7.40 on MetRS (C. parvum). The MIC in [4] was 0.24 µg/mL (≈ 0.523 µM). Moreover, the pEC50 was 8.44 in the experiment on T. brucei (Trypanosoma brucei); 8.47 in the experiment on T. brucei; 8.23 in the experiment with T. cruzi (Trypanosoma cruzi); 7.97 with T. cruzi; 5.77 in the experiment with C. parvum (Cryptosporidium parvum).
With `Clc1ccc(-c2cccc3nc(Cc4nc5nc(Cl)ccc5[nH]4)cn23)c(Cl)c1` [Compound 2134, 2-({5-chloro-1H-imidazo[4,5-b]pyridin-2-yl}methyl)-5-(2,4-dichlorophenyl)-imidazo[1,2-a]pyridine], the pIC50 in experiment [1] is > 7.60; against MetRS (T. brucei), > 7.40; at MetRS (C. parvum) it was 7.23. The “(G) MRSA (ATCC33591) MIC” value in [2] amounted to 0.331 µg/mL. Further, the MIC in [2] amounted to 0.268 µg/mL (≈ 0.625 µM); in experiment [3], 0.162 µg/mL (≈ 0.378 µM); in experiment [4] it was 0.259 µg/mL (≈ 0.604 µM). Moreover, the pEC50 in the experiment with T. brucei (Trypanosoma brucei) is 7.19; in the experiment with T. cruzi (Trypanosoma cruzi), 6.16.
Consider `Fc1ccc2[nH]c(Cc3cn4c(-c5ccc(Cl)cc5Cl)cccc4n3)nc2n1` [Compound 2135, 5-(2,4-dichlorophenyl)-2-({5-fluoro-1H-imidazo[4,5-b]pyridin-2-yl}methyl)imidazo[1,2-a]pyridine], for which the pIC50 in [1] was > 7.60; against MetRS (T. brucei), > 7.40; at MetRS (C. parvum), 7.25. Further, the MIC worked out at 0.592 µg/mL (≈ 1.44 µM) in experiment [3] and 1.33 µg/mL (≈ 3.23 µM) in [4]. Moreover, the pEC50 in the experiment with T. brucei (Trypanosoma brucei) is 7.00; with T. cruzi (Trypanosoma cruzi), 5.67.
As to `O=c1n(Cc2nc3nc(F)ccc3[nH]2)cc(Cc2ccc(Cl)cc2Cl)n1CC(F)F` [Compound 2139, 4-[(2,4-dichlorophenyl)methyl]-3-(2,2-difluoroethyl)-1-({5-fluoro-1H-imidazo[4,5-b]pyridin-2-yl}methyl)-2,3-dihydro-1H-imidazol-2-one], the pIC50 is > 7.60 in experiment [1], > 7.40 against MetRS (T. brucei) and > 7.40 at MetRS (C. parvum). Moreover, the MIC in experiment [2] was found to be 0.307 µg/mL (≈ 0.673 µM); in [3], 0.0776 µg/mL (≈ 0.17 µM). In addition, the pEC50 is 8.49 in the experiment on T. brucei (Trypanosoma brucei) and 6.71 in the experiment with C. parvum (Cryptosporidium parvum).
In the case of `COc1ccc(-c2cccc3nc(Cc4nc5nc(C(F)(F)F)ccc5[nH]4)cn23)c(Cl)c1` [Compound 2166, 5-(2-chloro-4-methoxyphenyl)-2-{[5-(trifluoromethyl)-1H-imidazo[4,5-b]pyridin-2-yl]methyl}imidazo[1,2-a]pyridine], the pIC50 is 6.75 in experiment [1], > 7.40 on MetRS (T. brucei) and < 6.00 on MetRS (C. parvum). The MIC is > 1.25 µg/mL in experiment [3] and > 2.5 µg/mL in [4]. In addition, the pEC50 in the experiment with T. brucei (Trypanosoma brucei) was < 6.70; with T. cruzi (Trypanosoma cruzi), 6.22.
For `COc1ccc(-c2ccc3c(=O)ccn(Cc4nc5nc(F)ccc5[nH]4)c3c2)c(Cl)c1` [Compound 2168, 7-(2-chloro-4-methoxyphenyl)-1-((5-fluoro-1H-imidazo[4,5-b]pyridin-2-yl)methyl)quinolin-4(1H)-one], the results for the pIC50 (in experiment [1]; against MetRS (T. brucei); at MetRS (C. parvum)) were > 7.60, > 7.40 and > 7.40, respectively. For the same compound, the values for the MIC in experiment [3] and in experiment [4] were > 1.25 µg/mL and > 2.5 µg/mL, respectively. The figures for the pEC50 with T. brucei (Trypanosoma brucei) and with T. cruzi (Trypanosoma cruzi) were < 6.70 and 5.21, respectively.
As for `COc1ccc(-c2cn(Cc3ccccc3)c3c2CN(Cc2nc4nc(Cl)ccc4[nH]2)CC3)c(Cl)c1` [Compound 2176, 2-((1-benzyl-3-(2-chloro-4-methoxyphenyl)-6,7-dihydro-1H-pyrrolo[3,2-c]pyridin-5(4H)-yl)methyl)-5-chloro-1H-imidazo[4,5-b]pyridine], the pIC50 is > 7.60 in experiment [1], > 7.40 against MetRS (T. brucei) and 7.10 on MetRS (C. parvum). For the same compound, the values for the MIC in [2] and in [3] were > 2.5 µg/mL and > 0.5 µg/mL, respectively. Moreover, the pEC50 in the experiment on T. brucei (Trypanosoma brucei) is 7.39; in the experiment on T. cruzi (Trypanosoma cruzi) it was 6.55.
As to `COc1ccc(-c2cnc(N3CCN(C(C)=O)CC3)c3nc(Cc4nc5nc(Cl)ccc5[nH]4)cn23)c(Cl)c1` [Compound 2185, 1-{4-[2-({5-chloro-1H-imidazo[4,5-b]pyridin-2-yl}methyl)-5-(2-chloro-4-methoxyphenyl)imidazo[1,2-a]pyrazin-8-yl]piperazin-1-yl}ethan-1-one], the figures for the pIC50 (in [1]; against MetRS (T. brucei); at MetRS (C. parvum)) were > 7.60, > 7.40 and > 7.40, respectively. Besides, the MIC in experiment [2] was found to be 1.2 µg/mL (≈ 2.18 µM); in experiment [3], 0.358 µg/mL (≈ 0.649 µM). Moreover, the pEC50 is 7.15 with T. cruzi (Trypanosoma cruzi), 7.04 with T. cruzi and 6.61 in the experiment with C. parvum (Cryptosporidium parvum).
